# Experiments:
# [1] = test system: aptamer 1 (DNA, G4) GGGTAGGGCGGGTTGGG; assay: peroxidase activity titration (ABTS-H2O2, A421); details: 20 mM K+, 200 mM Na+; 5.45 mM ABTS, 25 mM HEPES pH 8.0, 0.05% Triton X-100, 1% DMSO, 0.1 µM hemin
# [2] = test system: aptamer II (DNA, G4) AGTCCGTGGTTGGTGTGGTTGGGGTGACT; assay: peroxidase activity (ABTS-H2O2); details: 20 mM K+, 200 mM Na+; 25 mM HEPES pH 8.0, 0.05% Triton X-100, 1% DMSO; 1 µM hemin plus 1 µM aptamer
# [3] = test system: aptamer 4 (DNA, G4) AGGGACGGGAAGAA/AAAATGTGGAGGGT; assay: UV-Vis, hyperchromicity of hemin Soret band; details: 20 mM K+, 200 mM Na+; 25 mM HEPES pH 7.4, 0.05% Triton X-100, 1% DMSO; 1 µM complex
# [4] = test system: aptamer III (DNA, G4) AGGGACGGGAAGAAAAGGAAAATCCTTAAAATGTGGAGGGT; assay: UV-Vis, hyperchromicity of hemin Soret band; details: 20 mM K+, 200 mM Na+; 25 mM HEPES pH 7.4, 0.05% Triton X-100, 1% DMSO; 1 µM complex; about 2 x affinity of aptamer 4
# [5] = test system: aptamer I (DNA, G4) AGTCCGTGGGTAGGGCGGGTTGGGGGTGACT; assay: peroxidase activity titration (ABTS-H2O2, A421); details: 20 mM K+, 200 mM Na+; 5.45 mM ABTS, 25 mM HEPES pH 8.0, 0.05% Triton X-100, 1% DMSO, 0.1 µM hemin
structure (smiles),measurement,setting,value
C=CC1=C(C)C2=Cc3c(C=C)c(C)c4[n]3[Fe]([Cl])[n]3c(c(C)c(CCC(=O)O)c3=CC3=NC(=C4)C(C)=C3CCC(=O)O)=CC1=N2,Kd,[1],0.258 ± 0.007 µM
same,binding,[2],yes
same,binding,[3],yes
same,binding,[4],yes
same,Kd,[5],0.194 ± 0.01 µM
